According to ChEMBL document CHEMBL1155592, “New antibacterial metabolites from the cyanobacterium Nostoc commune(EAWAG 122b)” (2000):
Values after ≈ are worked out from the molar mass of the structure shown.

What was measured:
Bacillus cereus = assay: Antibacterial activity against Bacillus cereus ATCC 10702; type: functional
[1] = system: Staphylococcus epidermidis; assay: Antibacterial activity against Staphylococcus epidermidis ATCC 12228; type: functional

MIC (Bacillus cereus) | MIC [1] | Structure (SMILES)
32 µg/mL (≈ 126 µM) | 32 µg/mL (≈ 126 µM) | Cc1ccc(O)c2c1C(=O)c1cccc(O)c1C2=O
128 µg/mL (≈ 291 µM) | 4 µg/mL (≈ 9.08 µM) | C[C@@H]1C[C@H](O)C2=C3[C@@H](C[C@@H]4C(C)(C)[C@H](O)CC[C@@]24C)Oc2ccc(C(=O)O)cc2C[C@@]31C
64 µg/mL (≈ 395 µM) | 128 µg/mL (≈ 789 µM) | Cc1ccc(O)c2c1C(=O)CC2
8 µg/mL (≈ 24.8 µM) | 4 µg/mL (≈ 12.4 µM) | O=C(N[C@H](CO)[C@H](O)c1ccc([N+](=O)[O-])cc1)C(Cl)Cl [CHLORAMPHENICOL]
